Source: PubChem BioAssay AID306 (DTP/NCI, 2004)
Where “and” joins values, the source holds several entries; their conditions need not be identical. Identical values can stand only once. Inconclusive results and toxic doses are left out. How the source made its calls: active means survival T/C of 150% or more; inactive means T/C below 125% in these data.

Tested on: BDF1 mice, L1210 Methyl-GAG-resistant leukemia, survival T/C
Experiment: NCI In Vivo Anticancer Drug Screen. Data for tumor model L1210 Leukemia resistant to Methyl-GAG; NSC 32946 (subcutaneous) in B6D2F1 (BDF1) mice
Details: endpoint: mean survival time, higher = longer survival
Protocol: The antitumor activity of compounds was measured in mice bearing transplantable tumors. Survival or tumor size were measured and the results are expressed as the measurement made in the treated group (T) divided by the measurement made in the vehicle treated control group (C). The tumor model used in this assay is L1210 Leukemia resistant to Methyl-GAG; NSC 32946 (subcutaneous) in B6D2F1 (BDF1) mice

[1] = dose: 25.0 mg/kg/injection, schedule: Q01DX Z (ip), vehicle: carboxymethylcellulose (CMC)
[2] = dose: 50.0 mg/kg/injection, schedule: Q01DX Z (ip), vehicle: carboxymethylcellulose (CMC)
[3] = dose: 100.0 mg/kg/injection, schedule: Q01DX Z (ip), vehicle: carboxymethylcellulose (CMC)
[4] = dose: 200.0 mg/kg/injection, schedule: Q01DX Z (ip), vehicle: carboxymethylcellulose (CMC)

Measured: T/C

CC[C@H](c1ccc(O)cc1)[C@@H](CC)c1ccc(O)cc1
inactive: dose: 4.0 mg/kg/injection, schedule: Q01DX Z (sc), vehicle: steriod suspending solution 100 % of control | dose: 8.0 mg/kg/injection, schedule: Q01DX Z (sc), vehicle: steriod suspending solution 100 % of control | dose: 16.0 mg/kg/injection, schedule: Q01DX Z (sc), vehicle: steriod suspending solution 95 % of control | dose: 32.0 mg/kg/injection, schedule: Q01DX Z (sc), vehicle: steriod suspending solution 105 % of control

O=C(Nc1ccc(NC2=NCCN2)cc1)c1ccc(C(=O)Nc2ccc(NC3=NCCN3)cc2)cc1
inactive: dose: 0.5 mg/kg/injection, schedule: Q01DX Z (ip), vehicle: saline 101 % of control | dose: 1.0 mg/kg/injection, schedule: Q01DX Z (ip), vehicle: saline 100 % of control | dose: 2.0 mg/kg/injection, schedule: Q01DX Z (ip), vehicle: saline 100 % of control | dose: 32.0 mg/kg/injection, schedule: Q01DX Z (ip), vehicle: saline 113 % of control | dose: 64.0 mg/kg/injection, schedule: Q01DX Z (ip), vehicle: saline 95 % of control
active: dose: 8.0 mg/kg/injection, schedule: Q01DX Z (ip), vehicle: saline 196 % of control

O=C(Nc1ccc(C2=NCCN2)cc1)c1ccc(C(=O)Nc2ccc(C3=NCCN3)cc2)cc1
active: [4] 236 % of control
inactive: [1] 98 % of control | [2] 98 % of control | [3] 124 % of control | dose: 400.0 mg/kg/injection, schedule: Q01DX Z (ip), vehicle: carboxymethylcellulose (CMC) 104 % of control

O=P1(N(CCCl)CCCl)NCCCO1 (stereo not given)
257 % of control and 98 % of control: dose: 50.0 mg/kg/injection, schedule: Q01DX Z (ip), vehicle: saline
active: dose: 25.0 mg/kg/injection, schedule: Q01DX Z (ip), vehicle: saline 254 % of control and 151 % of control
inactive: dose: 6.25 mg/kg/injection, schedule: Q01DX Z (ip), vehicle: saline 93 % of control | dose: 12.5 mg/kg/injection, schedule: Q01DX Z (ip), vehicle: saline 122 % of control and 123 % of control | dose: 100.0 mg/kg/injection, schedule: Q01DX Z (ip), vehicle: saline 90 % of control and 98 % of control

Nc1nc(=S)c2ncn(C3OC(CO)C(O)C3O)c2[nH]1 (stereo not given)
inactive: dose: 0.16 mg/kg/injection, schedule: Q01DX Z (ip), vehicle: carboxymethylcellulose (CMC) 92 % of control | dose: 0.31 mg/kg/injection, schedule: Q01DX Z (ip), vehicle: carboxymethylcellulose (CMC) 91 % of control | dose: 0.62 mg/kg/injection, schedule: Q01DX Z (ip), vehicle: carboxymethylcellulose (CMC) 102 % of control | dose: 1.25 mg/kg/injection, schedule: Q01DX Z (ip), vehicle: carboxymethylcellulose (CMC) 111 % of control
active: dose: 2.5 mg/kg/injection, schedule: Q01DX Z (ip), vehicle: carboxymethylcellulose (CMC) 152 % of control

CSc1ncnc2nc[nH]c12
inactive: dose: 12.5 mg/kg/injection, schedule: Q01DX Z (ip), vehicle: carboxymethylcellulose (CMC) 106 % of control | [1] 111 % of control | [2] 106 % of control | [3] 115 % of control | [4] 97 % of control

CC(=O)N(C)C
active: dose: 4000.0 mg/kg/injection, schedule: Q01DX Z (ip), vehicle: saline 154 % of control
inactive: dose: 125.0 mg/kg/injection, schedule: Q01DX Z (ip), vehicle: saline 100 % of control | dose: 250.0 mg/kg/injection, schedule: Q01DX Z (ip), vehicle: saline 94 % of control | dose: 500.0 mg/kg/injection, schedule: Q01DX Z (ip), vehicle: saline 102 % of control | dose: 1000.0 mg/kg/injection, schedule: Q01DX Z (ip), vehicle: saline 109 % of control | dose: 2000.0 mg/kg/injection, schedule: Q01DX Z (ip), vehicle: saline 105 % of control

CS(=O)(=O)OCCCCOS(C)(=O)=O
inactive: dose: 0.4 mg/kg/injection, schedule: Q01DX Z (ip), vehicle: methylcellulose (MC) 102 % of control | dose: 1.6 mg/kg/injection, schedule: Q01DX Z (ip), vehicle: methylcellulose (MC) 102 % of control | dose: 3.2 mg/kg/injection, schedule: Q01DX Z (ip), vehicle: methylcellulose (MC) 86 % of control | dose: 6.4 mg/kg/injection, schedule: Q01DX Z (ip), vehicle: methylcellulose (MC) 88 % of control and 102 % of control

O=CN(O)CC(=O)O
inactive: dose: 62.5 mg/kg/injection, schedule: Q01DX Z (ip), vehicle: carboxymethylcellulose (CMC) 108 % of control | dose: 125.0 mg/kg/injection, schedule: Q01DX Z (ip), vehicle: carboxymethylcellulose (CMC) 101 % of control | dose: 250.0 mg/kg/injection, schedule: Q01DX Z (ip), vehicle: carboxymethylcellulose (CMC) 101 % of control | dose: 500.0 mg/kg/injection, schedule: Q01DX Z (ip), vehicle: carboxymethylcellulose (CMC) 102 % of control and 110 % of control | dose: 1000.0 mg/kg/injection, schedule: Q01DX Z (ip), vehicle: carboxymethylcellulose (CMC) 105 % of control
